Literature values in patent publication US12251376B2, “Combinations with thiazolidinediones for use in the prevention or treatment of abnormal bone growth” (SERVIZO GALEGO DE SAÚDE (SERGAS), priority 2019, dated 2025).
“And” between values parts separate entries of the source, which are not always exact repeats. Equal entries are not always repeated. Values belong to the compound of their own block, whether it stands above or below them.

Tests used:
abnormal bone growth = settings: for preventing recurrence of heterotopic ossification after total hip replacement: state of the art
[1] = not given; remark: listed apart in the source
[2] = not given; remark: listed apart in the source

Compound: CC(=O)Oc1ccccc1C(=O)O [aspirin]
preventing recurrence of heterotopic ossification after total hip replacement (abnormal bone growth): some effect

Compound: CC(C)Cc1ccc(C(C)C(=O)O)cc1 (centres unmarked) [ibuprofen]
preventing recurrence of heterotopic ossification after total hip replacement (abnormal bone growth): some effect

Bioavailability (oral): total
Compound: COc1ccc2c(c1)c(CC(=O)O)c(C)n2C(=O)c1ccc(Cl)cc1 [indomethacin]
reduction of abnormal bone growth (clinical data) (abnormal bone growth; 75 mg retard administration): significantly reduce | preventing recurrence of heterotopic ossification after total hip replacement (abnormal bone growth): some effect

solubility [1]: highly insoluble | doses shown safe in clinical trials [2]: up to 180 mg/day | Volume of distribution (in vivo): 0.25 L/kg | Bioavailability (oral): > 80% and ~83% | time of maximum plasma dose after oral administration (oral): 2 h | increase of plasma concentration with dose (tested from 2 mg to 60 mg): Linear increase
Compound: CCc1ccc(CCOc2ccc(CC3SC(=O)NC3=O)cc2)nc1 (centres unmarked) [pioglitazone]
